According to US12606554B2, “Compounds and pharmaceutical compositions thereof for the treatment of diseases” (ONCO3R Therapeutics BV, priority 2019, dated 2026):

What was measured:
[1] = test system: LPS triggered IL-10 secretion in monocyte-derived macrophages (MdM); assay: MdM assay: LPS-triggered IL-10 (ELISA); type: cell-based, human; conditions: LPS 200 ng/mL, maximal fold change vs LPS only
Description: (§1) SIK inhibition inhibits TNFα and increases IL-10 release in LPS triggered monocyte-derived macrophages (MdM) and dendritic cells (MdDCs) (Clark et al. 2012; Sundberg et al. 2014; Ozanne et al. 2015). This assay evaluates illustrative compounds of the invention for their inhibition of LPS-induced TNFα and LPS triggered IL-10 secretion in monocyte-derived macrophages.
(§2) PBMCs are isolated from human blood samples (buffycoats). The buffy coat is aseptically transferred into a 50 mL Falcon tube, and diluted ½ in PBS. Falcon tubes are filled with 20 mL Lymphoprep™, on top of which 25 mL of the buffy coat is carefully added, tubes are centrifuged for 35 min at 400 g in temperature controlled centrifuge, without brake, at 25° C. PBMCs are aspirated from the white interface layer between sample and Lymphoprep™. PBMCs are washed five times in PBS. Cells are resuspended in RPMI 1640 complete medium supplemented with 10% FBS, 1% P/S, and cell density is determined using a hematologic analyzer (Sysmex XS-500i). […]
(§3) The columns are removed from the magnets, and 5 mL of Miltenyi buffer are added to the column to flush out the CD14+ fraction by pushing the plunger into the column. […] The obtained cell pellet is resuspended in 10 mL RPMI w/o FBS, and cell density is determined using a hematologic analyser (Sysmex XS-500i). […]

[2] = test system: LPS triggered IL-10 secretion in monocytes; assay: Monocytes assay: LPS-triggered IL-10 (ELISA); type: cell-based, human; conditions: LPS 200 ng/mL, supernatant after 4 h, maximal fold change vs LPS only
Description: as §1, with “monocytes.” for “monocyte-derived macrophages.”
as §2, §3

| Compound | IL-10 FCmax median [1] | IL-10 FCmax median [2] |
| --- | --- | --- |
| COc1cc(-c2cnn3cc(OCCN4CCOCC4)ccc23)cc2c1C(=O)N(CC(F)(F)F)CC2 [Cpd 1, 8-methoxy-6-[6-(2-morpholinoethoxy)pyrazolo[1,5-a]pyridin-3-yl]-2-(2,2,2-trifluoroethyl)-3,4-dihydroisoquinolin-1-one] | ++ (>1.5-4.5) | +++ (>4.5) |
| COc1cc(-c2cnn3cc(OC(C)(C)CO)ccc23)cc(OC(F)F)c1C(=O)N[C@@H]1C[C@@H]1F [Cpd 2, 2-(difluoromethoxy)-N-[(1R,2S)-2-fluorocyclopropyl]-4-[6-(2-hydroxy-1,1-dimethyl-ethoxy)pyrazolo[1,5-a]pyridin-3-yl]-6-methoxy-benzamide] |  | + (≤1.5) |
